Source: US12414979B2, “Compositions and methods for treating Sjogren's syndrome” (Interlude Biopharma Co., priority 2019, dated 2025)
No end group written: not given here.

System: PAR-C10 cells
Assay: Trans-epithelial electrical resistance (TEER) assay of tight junction integrity in PAR-C10 monolayers treated with IFNγ and TNFα
Format: cell-based, rat
Settings: for prevention of cytokine-induced drop in TEER: co-incubation with IFNγ and TNFα, larazotide acetate 1 mM and 5 mM, other compounds 5 mM and 10 mM, FIG. 1-3
Excerpt: Specifically, an in vitro assay system to measure tight junction integrity was established using PAR-C10 cells, an immortalized rat acinar epithelial cell line, which mimic the biochemical and functional characteristics of primary salivary gland acinar cells. PAR-C10 cells form a monolayer of cuboidal cells, and are attached to each other with well-formed junctional complexes. PAR-C10 cells have been used to model the effect of inflammatory cytokines on tight junctions in vitro. Quissell et al., (1998) In Vitro Cell. Dev. Biol. Anim. 34: 58-67; Baker et al., Am. J. Cell Physiol. 295:C1191-1201. The cells were seeded on permeable supports in 12 well plates and cultured to form monolayers. The trans-epithelial electrical resistance (TEER) across the epithelial monolayer was measured to evaluate formation of tight junction between the cells. Three ng/ml of each pro-inflammatory cytokines, interferon gamma (IFNγ) and tumor necrosis factor alpha (TNFα) were added to the monolayers and incubated for 24 hours in order to cause tight junction disruption. Larazotide acetate (1 mM and 5 mM) or any one of 4-Aminosalicylic acid (4-ASA), 4-Amino-phenyl-acetic acid (4-APAA), and 4-Acetyl amino-phenyl-acetic acid (4-Ac APAA) (5 or 10 mM) of was added to the apical surface and the cells allowed to grow for an additional 24 hours. The compounds were dissolved in dimethyl sulfoxide and added to the culture media to obtain a final concentration of 5 mM and 10 mM each.
TEER measurements were used to determine the effect of larazotide acetate (1 or 5 mM) and other anti-inflammatory compounds (4-Aminosalicylic acid (4-ASA), 4-Amino-phenyl-acetic acid (4-APAA), and 4-Acetyl amino-phenyl-acetic acid (4-Ac APAA)) (5 or 10 mM) on tight junctions, in the presence of cytokines. To determine a therapeutic effect, the cells were pre-treated with cytokines, and the ability of larazotide acetate (1 or 5 mM) or 4-ASA, 4-APAA, and 4-Ac APAA (each at 5 or 10 mM) to reverse junctional disruption was evaluated. Wells not treated with cytokines were used as controls. p values were determined by Kruskal Wallis tests, and adjusted p values were determined by Dunns post test.

Molecule	prevention of cytokine-induced drop in TEER	prevention of cytokine induced disruption of tight junctions (TEER) (5 mM concentration, 2 independent experiments, FIG. 2)	reversal of cytokine-mediated drop in TEER (monolayers incubated with IFNγ and TNFα for 24 hours, then larazotide acetate (1 mM and 5 mM) on apical surface for additional 24 hours, FIG. 4)
CC(=O)Nc1ccc(CC(=O)O)cc1 [4-Acetyl amino-phenyl-acetic acid, (4-acetylaminophenyl)-acetic acid, reference compound]	significantly prevent a drop in TEER		
Nc1ccc(CC(=O)O)cc1 [4-Amino-phenyl-acetic acid, 4-aminophenylacetic acid]	significantly prevent a drop in TEER		
Nc1ccc(C(=O)O)c(O)c1 [4-Aminosalicylic acid, reference compound]	significantly prevent a drop in TEER		
GGVLVQPG [larazotide acetate]	significantly prevent a drop in TEER	can reproducibly prevent cytokine induced disruption of tight junctions	able to reverse the cytokine-mediated drop in TEER
